Test results reported in patent publication US20050037926A1, “Pesticide preparations containing copolymers” (priority 2001, published 2005).

Columns and labels:
Assay type in all cases: in vivo
Conditions in all cases: 600 g copolymer where named, 300 l/ha, 21 days at 20° C.
[1] = test system: SEBEX, AMARE, GALAP, ABUTH, ECHCG, PHBPU; experiment: Greenhouse herbicidal action, total over the six plant species
Description: (§1) Test formulations were prepared with in each case 200 g, 300 g and 500 g of glyphosate and in each case 600 g of the copolymers I to V in 300 l of water. The data by weight refer to 100% active ingredient and 100% adjuvant. An amount of the formulation corresponding to the ratio 300 l/ha was applied in a greenhouse to the plant species Abutilon theophrasti (ABUTH), Sesbania exaltata (SEBEX), Pharbitis purpurea (PHBPU), Galium aparine (GALAP), Amaranthus retroflexus (AMARE) and Echinochloa crus-galli (ECHCG), and, after 21 days at 20° C., the plant growth was assessed according to a % scale.
(§2) 0% means no effect and 100% means complete destruction of the types of plant.

[2] = test system: Pharbitis purpurea (PHBPU); experiment: Greenhouse herbicidal action of glyphosate test formulations
Description: as §1, §2

[3] = test system: Abutilon theophrasti (ABUTH); experiment: as above
Description: as §1, §2

[4] = test system: Sesbania exaltata (SEBEX); experiment: as above
Description: as §1, §2

[5] = test system: Echinochloa crus-galli (ECHCG); experiment: as above
Description: as §1, §2

[6] = test system: Amaranthus retroflexus (AMARE); experiment: as above
Description: as §1, §2

[7] = test system: Galium aparine (GALAP); experiment: as above
Description: as §1, §2

Question: With `O=C(O)CNCP(=O)(O)O` [Glyphosate, N-phosphonomethylglycine] as the compound, how does the “herbicidal action Total” value ([1]; glyphosate 200 g/ha) read?
Answer: 10%

Question: And the “herbicidal action Total” value ([1]; glyphosate 300 g/ha)?
Answer: 22%

Question: What about the “herbicidal action Total” value ([1]; glyphosate 500 g/ha) of the same compound?
Answer: 38%

Question: What about the “herbicidal action PHBPU (plant growth assessed on % scale)” value ([2]; glyphosate 200 g/ha) of the same compound?
Answer: 10%

Question: What about the “herbicidal action PHBPU (plant growth assessed on % scale)” value ([2]; glyphosate 300 g/ha) of the same compound?
Answer: 20%

Question: And the “herbicidal action PHBPU (plant growth assessed on % scale)” value ([2]; glyphosate 500 g/ha)?
Answer: 40%

Question: And the “herbicidal action ABUTH (plant growth assessed on % scale)” value ([3]; glyphosate 200 g/ha)?
Answer: 0%

Question: And the “herbicidal action ABUTH (plant growth assessed on % scale)” value ([3]; glyphosate 300 g/ha)?
Answer: 10%

Question: And the “herbicidal action ABUTH (plant growth assessed on % scale)” value ([3]; glyphosate 500 g/ha)?
Answer: 15%

Question: What about the “herbicidal action SEBEX (plant growth assessed on % scale)” value ([4]; glyphosate 200 g/ha, 0% no effect, 100% complete destruction) of the same compound?
Answer: 10%

Question: What about the “herbicidal action SEBEX (plant growth assessed on % scale)” value ([4]; glyphosate 300 g/ha) of the same compound?
Answer: 15%

Question: What about the “herbicidal action SEBEX (plant growth assessed on % scale)” value ([4]; glyphosate 500 g/ha) of the same compound?
Answer: 30%

Question: What about the “herbicidal action ECHCG (plant growth assessed on % scale)” value ([5]; glyphosate 200 g/ha) of the same compound?
Answer: 15%

Question: And the “herbicidal action ECHCG (plant growth assessed on % scale)” value ([5]; glyphosate 300 g/ha)?
Answer: 20%

Question: What about the “herbicidal action ECHCG (plant growth assessed on % scale)” value ([5]; glyphosate 500 g/ha) of the same compound?
Answer: 40%

Question: What about the “herbicidal action AMARE (plant growth assessed on % scale)” value ([6]; glyphosate 200 g/ha) of the same compound?
Answer: 20%

Question: And the “herbicidal action AMARE (plant growth assessed on % scale)” value ([6]; glyphosate 300 g/ha)?
Answer: 45%

Question: And the “herbicidal action AMARE (plant growth assessed on % scale)” value ([6]; glyphosate 500 g/ha)?
Answer: 65%

Question: What about the “herbicidal action GALAP (plant growth assessed on % scale)” value ([7]; glyphosate 200 g/ha) of the same compound?
Answer: 5%

Question: What about the “herbicidal action GALAP (plant growth assessed on % scale)” value ([7]; glyphosate 300 g/ha) of the same compound?
Answer: 20%

Question: And the “herbicidal action GALAP (plant growth assessed on % scale)” value ([7]; glyphosate 500 g/ha)?
Answer: 40%
